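Protocol summary: plate cells (96-well), add compound at 5 concentrations, incubate 48 h, interpolate endpoints linearly. GI50 marks 50% less growth. At the TGI there is no net growth.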
Experiments:
Test in all cases: NCI tumour cell line growth inhibition, 48 h
HCT-15 colon = tested on: HCT-15 colon
SNB-19 CNS = tested on: SNB-19 CNS
CCRF-CEM leukemia = tested on: CCRF-CEM leukemia
HCC-2998 colon = tested on: HCC-2998 colon
HCT-116 colon = tested on: HCT-116 colon
EKVX NSCLC = tested on: EKVX NSCLC
TK-10 renal = tested on: TK-10 renal
HOP-62 NSCLC = tested on: HOP-62 NSCLC
OVCAR-3 ovarian = tested on: OVCAR-3 ovarian
HT29 colon = tested on: HT29 colon
OVCAR-8 ovarian = tested on: OVCAR-8 ovarian
UACC-257 melanoma = tested on: UACC-257 melanoma
SK-MEL-2 melanoma = tested on: SK-MEL-2 melanoma
SF-268 CNS = tested on: SF-268 CNS
MDA-MB-435 = tested on: MDA-MB-435
HS 578T breast = tested on: HS 578T breast
SK-MEL-28 melanoma = tested on: SK-MEL-28 melanoma
PC-3 prostate = tested on: PC-3 prostate
NCI-H460 lung = tested on: NCI-H460 lung
786-0 renal = tested on: 786-0 renal
RPMI-8226 leukemia = tested on: RPMI-8226 leukemia
UACC-62 melanoma = tested on: UACC-62 melanoma
NCI-H226 lung = tested on: NCI-H226 lung
LOX IMVI melanoma = tested on: LOX IMVI melanoma
KM12 colon = tested on: KM12 colon
SF-539 CNS = tested on: SF-539 CNS
M14 melanoma = tested on: M14 melanoma
RXF 393 renal = tested on: RXF 393 renal
BT-549 breast = tested on: BT-549 breast
A549 NSCLC = tested on: A549 NSCLC
T-47D breast = tested on: T-47D breast
SK-OV-3 ovarian = tested on: SK-OV-3 ovarian
NCI-H522 lung = tested on: NCI-H522 lung
U251 CNS = tested on: U251 CNS
SK-MEL-5 melanoma = tested on: SK-MEL-5 melanoma
SF-295 CNS = tested on: SF-295 CNS
IGROV1 ovarian = tested on: IGROV1 ovarian
HOP-92 NSCLC = tested on: HOP-92 NSCLC
UO-31 renal = tested on: UO-31 renal
A498 renal = tested on: A498 renal
K-562 leukemia = tested on: K-562 leukemia
SN12C renal = tested on: SN12C renal
COLO 205 colon = tested on: COLO 205 colon
CAKI-1 renal = tested on: CAKI-1 renal
DU-145 prostate = tested on: DU-145 prostate
MALME-3M melanoma = tested on: MALME-3M melanoma
NCI/ADR-RES ovarian = tested on: NCI/ADR-RES ovarian
ACHN renal = tested on: ACHN renal
NCI-H23 lung = tested on: NCI-H23 lung
OVCAR-4 ovarian = tested on: OVCAR-4 ovarian
MDA-MB-231 breast = tested on: MDA-MB-231 breast
OVCAR-5 ovarian = tested on: OVCAR-5 ovarian
MCF7 breast = tested on: MCF7 breast
SW-620 colon = tested on: SW-620 colon
HL-60(TB) leukemia = tested on: HL-60(TB) leukemia

## C=C(C)[C@@]12OC3(/C=C/C=C/CCCCC)O[C@@H]1[C@@H]1[C@@H]4O[C@]4(CO)[C@@H](O)[C@]4(O)C(=O)C(C)=C[C@H]4[C@@]1(O3)[C@H](C)[C@H]2OC(=O)c1ccccc1
HCT-15 colon
  GI50: 1.42 µM
  TGI: 2.9 µM
SNB-19 CNS
  GI50: 1.92 µM
  TGI: 3.91 µM
CCRF-CEM leukemia
  GI50: < 0.01 µM
  TGI: 2.66 µM
HCC-2998 colon
  GI50: < 0.01 µM
  TGI: 1.8 µM
HCT-116 colon
  GI50: 1.65 µM
  TGI: 3.33 µM
EKVX NSCLC
  GI50: 1.28 µM
  TGI: 2.86 µM
TK-10 renal
  GI50: < 0.0106 µM
  TGI: 2.17 µM
HOP-62 NSCLC
  GI50: < 0.01 µM
  TGI: 4.84 µM
OVCAR-3 ovarian
  GI50: 1.68 µM
  TGI: 3.08 µM
HT29 colon
  GI50: 1.4 µM
  TGI: 2.94 µM
OVCAR-8 ovarian
  GI50: 2.77 µM
  TGI: 7.08 µM
UACC-257 melanoma
  GI50: 8.13 µM
  TGI: 21.5 µM
SK-MEL-2 melanoma
  GI50: 1.48 µM
  TGI: 3.85 µM
SF-268 CNS
  GI50: 1.7 µM
  TGI: 3.15 µM
MDA-MB-435
  GI50: < 0.01 µM
  TGI: 4.56 µM
HS 578T breast
  GI50: < 0.01 µM
  TGI: 2.21 µM
SK-MEL-28 melanoma
  GI50: 1.18 µM
  TGI: 2.42 µM
PC-3 prostate
  GI50: 1.46 µM
  TGI: 3.3 µM
NCI-H460 lung
  GI50: < 0.01 µM
  TGI: 2.29 µM
786-0 renal
  GI50: 1.23 µM
  TGI: 2.53 µM
RPMI-8226 leukemia
  GI50: 3.35 µM
  TGI: > 23.2 µM
UACC-62 melanoma
  GI50: 3.19 µM
  TGI: 6.86 µM
NCI-H226 lung
  GI50: 1.68 µM
  TGI: 3.21 µM
LOX IMVI melanoma
  GI50: 1.1 µM
  TGI: 2.29 µM
KM12 colon
  GI50: 1.61 µM
  TGI: 2.99 µM
SF-539 CNS
  GI50: 1.41 µM
  TGI: 2.8 µM
M14 melanoma
  GI50: 1.57 µM
  TGI: 5.38 µM
RXF 393 renal
  GI50: 1.87 µM
  TGI: 3.49 µM
BT-549 breast
  GI50: 1.66 µM
  TGI: 4.38 µM
A549 NSCLC
  GI50: < 0.01 µM
  TGI: 2.04 µM
T-47D breast
  GI50: 2.2 µM
  TGI: 7.25 µM
SK-OV-3 ovarian
  GI50: 2.44 µM
  TGI: 4.9 µM
NCI-H522 lung
  GI50: 1.27 µM
  TGI: 2.71 µM
U251 CNS
  GI50: 1.24 µM
  TGI: 2.48 µM
SK-MEL-5 melanoma
  GI50: < 0.01 µM
  TGI: 1.86 µM
SF-295 CNS
  GI50: < 0.01 µM
  TGI: 4.9 µM
IGROV1 ovarian
  GI50: 1.62 µM
  TGI: 3.18 µM
HOP-92 NSCLC
  GI50: < 0.01 µM
  TGI: 2.13 µM
UO-31 renal
  GI50: 0.0221 µM
  TGI: 1.85 µM
A498 renal
  GI50: < 0.01 µM
K-562 leukemia
  GI50: < 0.01 µM
  TGI: 1.87 µM
SN12C renal
  GI50: 1.49 µM
  TGI: 2.83 µM
COLO 205 colon
  GI50: < 0.01 µM
  TGI: 1.6 µM
CAKI-1 renal
  GI50: < 0.01 µM
  TGI: 0.0347 µM
DU-145 prostate
  GI50: 0.105 µM
  TGI: 2.11 µM
MALME-3M melanoma
  GI50: 11.3 µM
  TGI: 26.9 µM
NCI/ADR-RES ovarian
  GI50: 3.13 µM
  TGI: 8.9 µM
ACHN renal
  GI50: 1.16 µM
  TGI: 4.43 µM
NCI-H23 lung
  GI50: 2.84 µM
  TGI: 8.12 µM
OVCAR-4 ovarian
  GI50: 1.91 µM
  TGI: 3.82 µM
MDA-MB-231 breast
  GI50: 0.118 µM
  TGI: 2.27 µM
OVCAR-5 ovarian
  GI50: 4.43 µM
  TGI: 8.62 µM
MCF7 breast
  GI50: 1.55 µM
  TGI: 3.31 µM

## CCOC(=O)/C=C/C(C(=O)/C=C/c1ccc(OC2CCCCO2)c(OC)c1)=C(O)\C=C\c1ccc(OC2CCCCO2)c(OC)c1 (stereo not drawn)
HCT-15 colon
  GI50: 3.59 µM
  TGI: 12.6 µM
SNB-19 CNS
  GI50: 5.32 µM
  TGI: 25.2 µM
CCRF-CEM leukemia
  GI50: 2.69 µM
  TGI: 8.35 µM
HCC-2998 colon
  GI50: 9.53 µM
  TGI: 21.6 µM
HCT-116 colon
  GI50: 2.09 µM
  TGI: 4.76 µM
SW-620 colon
  GI50: 3.65 µM
  TGI: > 100 µM
EKVX NSCLC
  GI50: 10.7 µM
  TGI: > 100 µM
TK-10 renal
  GI50: 2.84 µM
  TGI: 9.21 µM
HOP-62 NSCLC
  GI50: 6.09 µM
  TGI: 32.5 µM
OVCAR-3 ovarian
  GI50: 2.58 µM
  TGI: 8.47 µM
HT29 colon
  GI50: 1.94 µM
  TGI: 4.51 µM
OVCAR-8 ovarian
  GI50: 2.51 µM
  TGI: 6.2 µM
UACC-257 melanoma
  GI50: 19.8 µM
  TGI: 78.4 µM
SK-MEL-2 melanoma
  GI50: 3.27 µM
  TGI: 15.2 µM
SF-268 CNS
  GI50: 4.88 µM
  TGI: > 100 µM
MDA-MB-435
  GI50: 3.23 µM
  TGI: 13.6 µM
HS 578T breast
  GI50: 12.3 µM
  TGI: 80.5 µM
SK-MEL-28 melanoma
  GI50: 2.48 µM
  TGI: 6.74 µM
PC-3 prostate
  GI50: 3.85 µM
  TGI: > 100 µM
NCI-H460 lung
  GI50: 11.9 µM
  TGI: 50.5 µM
786-0 renal
  GI50: 4.96 µM
  TGI: 20.3 µM
RPMI-8226 leukemia
  GI50: 4.13 µM
  TGI: 17.8 µM
UACC-62 melanoma
  GI50: 3.02 µM
  TGI: 12.8 µM
NCI-H226 lung
  GI50: 12.9 µM
  TGI: 34.7 µM
LOX IMVI melanoma
  GI50: 1.63 µM
  TGI: 3.32 µM
KM12 colon
  GI50: 4.75 µM
  TGI: 19 µM
SF-539 CNS
  GI50: 20.3 µM
  TGI: 53.1 µM
M14 melanoma
  GI50: 3.48 µM
  TGI: 15.3 µM
RXF 393 renal
  GI50: 2.21 µM
  TGI: 5.68 µM
BT-549 breast
  GI50: 5.18 µM
  TGI: 28.4 µM
A549 NSCLC
  GI50: 13.5 µM
  TGI: 39 µM
T-47D breast
  GI50: 15.1 µM
  TGI: 60.3 µM
SK-OV-3 ovarian
  GI50: 23.1 µM
  TGI: > 100 µM
NCI-H522 lung
  GI50: 2.22 µM
  TGI: 6.68 µM
U251 CNS
  GI50: 3.36 µM
  TGI: 12.6 µM
SK-MEL-5 melanoma
  GI50: 4.44 µM
  TGI: 16.5 µM
SF-295 CNS
  GI50: 10.7 µM
  TGI: 42.8 µM
IGROV1 ovarian
  GI50: 2.85 µM
  TGI: 6.68 µM
HOP-92 NSCLC
  GI50: 20.2 µM
  TGI: 58.2 µM
UO-31 renal
  GI50: 2.63 µM
  TGI: 7.56 µM
A498 renal
  GI50: 18.3 µM
  TGI: 35.7 µM
K-562 leukemia
  GI50: 2.62 µM
  TGI: 75 µM
SN12C renal
  GI50: 2.16 µM
  TGI: 4.96 µM
COLO 205 colon
  GI50: 3.1 µM
  TGI: 11.4 µM
CAKI-1 renal
  GI50: 4.97 µM
  TGI: > 100 µM
DU-145 prostate
  GI50: 7.01 µM
  TGI: 42.6 µM
MALME-3M melanoma
  GI50: 2.07 µM
  TGI: 5.9 µM
NCI/ADR-RES ovarian
  GI50: 10.6 µM
  TGI: 46.3 µM
ACHN renal
  GI50: 3.61 µM
  TGI: 12.5 µM
NCI-H23 lung
  GI50: 5.9 µM
  TGI: 18.7 µM
MDA-MB-231 breast
  GI50: 2.56 µM
  TGI: 6.73 µM
OVCAR-5 ovarian
  GI50: 7.81 µM
  TGI: 74.5 µM
MCF7 breast
  GI50: 4.42 µM
  TGI: 36.2 µM
HL-60(TB) leukemia
  GI50: 3.01 µM
  TGI: > 100 µM

Reference: PubChem BioAssay (NCI)
